Reference: paper PMC11288311 (Cell chemical biology, 2022)

What was measured:
hLRH1 IEC Rag2-/- mice = assay: T cell transfer; format: in vivo, mouse; conditions: 20 mg/kg i.p., 16 days
hLRH-1 enteroids = assay: Gene expression in TNF-stimulated humanized LRH-1 mouse intestinal enteroids; format: cell-based; conditions: 1 μM overnight, not observed in LRH-1-deficient enteroids
[1] = tested on: human LRH-1 (hLRH-1) in the liver; assay: Liver gene expression
[2] = tested on: endogenous LRH-1 in Huh7 hepatocytes; assay: qRT-PCR of LRH-1 targets in Huh7 hepatocytes; format: cell-based, human; conditions: Huh7, 24-hour treatment
LRH-1 K520A = assay: Luciferase reporter assay with LRH-1 K520A mutant; format: cell-based, human; conditions: K520A mutation, 30 μM, 24 hours
mouse LRH-1 = mouse LRH-1 (Mus musculus, UniProt P45448); assay: Activation of mouse LRH-1 in vitro
Sequence of mouse LRH-1 (P45448 whole entry, the tested form may be a part): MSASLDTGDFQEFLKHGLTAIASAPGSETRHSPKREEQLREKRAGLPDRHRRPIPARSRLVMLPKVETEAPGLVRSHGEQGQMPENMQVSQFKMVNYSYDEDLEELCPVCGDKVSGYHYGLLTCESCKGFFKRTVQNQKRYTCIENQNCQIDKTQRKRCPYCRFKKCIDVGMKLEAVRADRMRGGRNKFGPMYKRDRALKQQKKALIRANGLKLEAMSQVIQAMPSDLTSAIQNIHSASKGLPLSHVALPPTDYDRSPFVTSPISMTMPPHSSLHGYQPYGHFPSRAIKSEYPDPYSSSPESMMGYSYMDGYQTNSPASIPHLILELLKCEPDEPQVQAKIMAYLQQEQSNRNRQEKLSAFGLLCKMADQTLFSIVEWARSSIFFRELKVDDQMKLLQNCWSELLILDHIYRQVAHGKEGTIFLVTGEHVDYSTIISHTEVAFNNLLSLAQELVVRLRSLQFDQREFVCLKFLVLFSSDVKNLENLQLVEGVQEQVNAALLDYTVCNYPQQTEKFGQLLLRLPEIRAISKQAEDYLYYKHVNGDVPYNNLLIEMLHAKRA

LRH-1 LBD Y516A or K520A = format: binding, human; conditions: Y516A or K520A mutation
[3] = Aqueous solubility by LC-MS in PBS; format: physicochemical; conditions: PBS pH 7.4, 25°C, 2 hours

Q: Which “Body weight at end of study relative to mean pre-treatment body weight” value (hLRH1 IEC Rag2-/- mice) does the source give for C=C(c1ccccc1)[C@@]12CC[C@@H](O)[C@@H]1CC(CCCCCCCCCC(=O)O)=C2c1ccccc1 [Compound 10CA] here?
A: Its value is no more than 1%.

Q: What about the Colon histology scores (hLRH1 IEC Rag2-/- mice) of the same compound?
A: Its Colon histology scores is “markedly improved”.

Q: What about the “Expression of LRH-1 targets Cyp8b1, Cyp11a1, Cyp11b1 in colonic crypts” value (hLRH1 IEC Rag2-/- mice) of the same compound?
A: The value was “strong upregulation”.

Q: What about the “Expression of Cyp11a1 and Il-10” value (hLRH-1 enteroids) of the same compound?
A: Its value is “induces expression”.

Q: What about the “Liver expression of lipogenic genes (Fasn, Acacb, Scd1)” value ([1]; 0.1, 1 or 10 mg/kg, five i.p. injections over three days) of the same compound?
A: The value was “downregulation of lipogenic genes”.

Q: And the “Liver expression of Srebf1” value ([1]; not statistically significant, p = 0.09 versus vehicle)?
A: Its value is “trends lower”.

Q: What about the “Expression of LRH-1 targets SHP (NR0B2) and PLK3” value [2] of the same compound?
A: Its value is “dose-dependently upregulates”.

Q: And the “Expression of de novo lipogenesis targets SREBF1, ACACB, FASN, SCD1” value [2]?
A: The value was “downregulates”.

Q: What about the “Reduction of activation versus WT LRH-1” value (LRH-1 K520A) of the same compound?
A: Its value is “around 60%”.

Q: And the “Activation of mouse LRH-1” value (mouse LRH-1)?
A: The value was “poor activators of mouse LRH-1”.

Q: With C=C(c1ccccc1)[C@@]12CC[C@@H](O)[C@@H]1CC(CCCCCC)=C2c1ccccc1 [RJW100] as the compound, how does the “Decrease in binding affinity, mutant versus WT LRH-1” value (LRH-1 LBD Y516A or K520A) read?
A: Its value is “insensitive or less sensitive”.

Q: What about the Aqueous solubility limit [3] of the same compound?
A: Its Aqueous solubility limit is 2.9 µM.
